3 molecules from patent US10766914B2, “DNA alkylating agents” (OBI PHARMA, INC., priority 2015, dated 2020) can be followed below.

The test system of series [1] is A 549 non-small cell lung xenograft. The series can be described thus: Example 4-B antitumor efficacy, ectopic A549 NSCLC xenograft model. Format: in vivo, female nude mice (nu/nu). The text has this: (§1) Specific pathogen-free homozygous female nude mice (nu/nu, Charles River Laboratories) were used. Mice were given food and water ad libitum and housed in microisolator cages. Four to six week old animals were identified by microchips (Locus Technology, Manchester, Md., USA) at the time of the experiments. All animal studies were approved by the Institutional Animal Care and Use Committee at Threshold Pharmaceuticals, Inc.
(§2) All cell lines were from the American Type Culture Collection (ATCC, Rockville, Md., USA).
(§3) Cells were mixed with Matrigel (50% with exception for 30% in the H460) and 0.2 ml per mouse were subcutaneously implanted to the flank area of the animals. When tumor size reached 100-150 250 mm3, mice were randomized into experimental or vehicle groups with 10 mice/group and treatment was started (Day 1). The tested compounds were formulated in 5% DMSO in D5W. The regimens employed in the examples include IP, QD×5/wk (5 days on, 2 days off) as one cycle, for a total of 2 cycles; IP, once; IP, weekly for total 3 weeks; and IV, weekly for 3 weeks. Tumor growth and body weight were measured twice a week. Tumor volume was calculated as (length×width2)/2. Drug efficacy was assessed as Tumor Growth Inhibition (TGI) and Tumor Growth Delay (TGD). TGI was defined as (1−ΔT/ΔC)×100, where ΔT/ΔC presented the ratio of the change in mean (or median, if variation within the group was relatively large) tumor volume of the treated group and of the control group. TGD was calculated as the extra days for the treated tumor to reach 500 mm3 or 1000 mm3 as compared to the control group. Animals were culled when individual tumor size reached over 2000 mm3 or mean tumor volume exceeded 1000 mm3 in the group. Data are expressed as the mean±SEM. One-way analysis of variance with Dunnett post comparison test (GraphPad Prism 4) or two-tailed student's t-test were used for analysis. A P level <0.05 was considered statistically significant.
The dosing was as follows. Daily IP dosing: 5 doses then 2 days off then 5 more doses starting at 110 mm^3 tumors on day 1 (10 animals per group average tumor volume).
Doses were selected by first doing a toxicity test in CD1 mice as described above. The compounds were tested against Thio-tepa.

The subject of series [2] is A375 melanoma human tumor xenograft. The series can be described thus: Example 4-C antitumor efficacy, ectopic A375 melanoma xenograft model. Format: in vivo, female nude mice (nu/nu). The settings on record: qd × 5 × 2, ip; for TGD 500 / TGD 1000: 10 mpk; for inhibition in vivo at 10 mg/kg: Mus musculus, A-375, 10 mpk, read-out: TGI.
Source text: as §1, §2, §3
his study employed an A375 melanoma human tumor xenograft model and various compounds provided herein were compared to thiotepa and the approved anti melanoma drug, nab-Paclitaxel.

For the next series, the system named is H460 cells. The series can be described thus: Proliferation assay in H460 cells (2 hr exposure, AlamarBlue). The note with it: Homo sapiens, NCI-H460, 2 hrs exposure, wash, 70 hrs growth, read-out: IC 50 in proliferation assay in H460 cells. Format: cell-based, human. The method, boiled down:
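H460 cells seeded at 4×10^3/well, grown 24 h, then exposed to compound for 2 h at 37 °C. Drug was washed off and cells were regrown 70 h in fresh medium. Viable cells were read by AlamarBlue, and IC50 was taken as the concentration giving 50% growth inhibition.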
(Alamar Blue is a resazurin reagent that responds to reducing activity.)

A short description of series [3]: Example 4-B body weight change, A549 xenograft study. Format: in vivo, female nude mice (nu/nu). The protocol:
as §3
Antitumor effects of compounds provided herein were determined on A 549 non-small cell lung xenograft model in comparison with a chemotherapy agent, thiotepa. The dosing was as follows. Daily IP dosing: 5 doses then 2 days off then 5 more doses starting at 110 mm^3 tumors on day 1 (10 animals per group average tumor volume). The antitumor effects and the safety of administration are graphically illustrated below.

The nature of series [4]: Example 4-C body weight change, A375 xenograft study. The settings on record: 10 mpk, qd × 5 × 2, ip. Format: in vivo, female nude mice (nu/nu). How it is done: as §3
his study employed an A375 melanoma human tumor xenograft model and various compounds provided herein were compared to thiotepa and the approved anti melanoma drug, nab-Paclitaxel. The antitumor effects and the safety of administration are graphically illustrated below.

A short description of series [5]: Pharmacokinetics in CD-1 mice following a single intraperitoneal dose (parent and TH2660). The settings on record: mouse, in vivo, ip, parent compound. How it is done:
The pharmacokinetics of TH2873, TH2883, TH2888, TH2890, TH2901 and TH2926 were determined in CD-1 mice following a single intraperitoneal dose.
The pharmacokinetics of TH2660, the active metabolite, following a single intraperitoneal dose of TH2873, TH2883, TH2888, TH2890, TH2901 and TH2926 are shown below.

A value given as a limit tells only on which side of the number the result lay.

Take `O=[N+]([O-])c1ccc(COP(=O)(N2CC2)N2CC2)cc1Oc1ccccc1` [Compound 2850]: the “TGD 500” value in series [1] (10 mg/kg ip QD × 5/wk × 2 wks) is 70 days; in series [1] (20 mg/kg ip QD × 5/wk × 2 wks), over 72 days; in series [2] it was -2 days. In addition, the TGI (usually the reduction of tumour growth relative to the control group) was 94.3% in series [1] (10 mg/kg ip QD × 5/wk × 2 wks) and 88.1% in series [1] (20 mg/kg ip QD × 5/wk × 2 wks). Further, in series [2], the “TGD 1000” value was determined as 0 days. For the same molecule, the inhibition in vivo at 10 mg/kg in series [2] turned out to be 2.7%. For the same molecule, in the series with H460 cells, the IC50 amounted to 20 nM. The “Max. BW loss %” value in series [3] (10 mg/kg ip QD × 5/wk × 2 wks) was determined as 0.9%; in series [3] (20 mg/kg ip QD × 5/wk × 2 wks) it was 7.4%; in series [4], 2.8%.

Turning to `CC(OP(=O)(N1CC1)N1CC1)c1ccc([N+](=O)[O-])c(Oc2cccnc2)c1` (stereo not shown) [Compound 2852], in series [1] (10 mg/kg ip QD × 5/wk × 2 wks), the “TGD 500” value is over 72 days and the TGI was found to be 95.1%. In series [2], the “TGD 500” value was determined as 3 days, the “TGD 1000” value is recorded as 1 days and the inhibition in vivo at 10 mg/kg was 12.4%. Further, the IC50 with H460 cells turned out to be 20 nM. In addition, the “Max. BW loss %” value in series [3] (10 mg/kg ip QD × 5/wk × 2 wks) is listed as 0.0%. Also, in series [4], the “Max. BW loss %” value was 2.6%.

Consider `CN(C)C(=O)c1cccc(Oc2cc(COP(=O)(N3CC3)N3CC3)ccc2[N+](=O)[O-])c1` [Compound 2889], for which, in series [1] (10 mg/kg ip QD × 5/wk × 2 wks), the “TGD 500” value is listed as 62 days and the TGI was 90.1%. Also, in series [5], the AUC (in general, concentration integrated over time) is 598 ng·h/mL; the Cmax (commonly the peak of the concentration-time curve) came to 2480 ng/mL; the time of peak concentration (Tmax) (as a rule, the time at which the peak concentration occurs) is 5 min; the half-life (commonly the time needed for the level to fall by half in the phase considered) was 10.3 min. In series [2], the “TGD 500” value is reported as 13 days, the “TGD 1000” value is reported as 15 days and the inhibition in vivo at 10 mg/kg was 75.6%. For the same molecule, the IC50 with H460 cells stood at 3 nM. The “Max. BW loss %” value in series [3] (10 mg/kg ip QD × 5/wk × 2 wks) is 1.1%. In addition, the “Max. BW loss %” value in series [4] is 0%.
